Laboratory results as given in ChEMBL document CHEMBL1201862, “PubChem BioAssay data set” (2004).
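Where inhibition never reached the appropriate level, the endpoint shown equals the highest concentration tested. Otherwise, values were interpolated linearly from a five-concentration, 48-hour dose response in 96-well plates. GI50 is the concentration that inhibits growth by half.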 Active and inactive are the calls of the source. Cut-off read from the data, not from the text of the source: active = GI50 up to about 1.1 µM and inactive = higher.

How the values were obtained:
Experiment in all cases: NCI tumour cell line growth inhibition, 48 h
SW-620 = tested on: SW-620
786-0 = tested on: 786-0
SF-268 = tested on: SF-268
MOLT-4 = tested on: MOLT-4
MDA-N = tested on: MDA-N
KM12 = tested on: KM12
SNB-19 = tested on: SNB-19
UACC-257 = tested on: UACC-257
NCI-H226 = tested on: NCI-H226
NCI/ADR-RES = tested on: NCI/ADR-RES
UO-31 = tested on: UO-31
MDA-MB-435 = tested on: MDA-MB-435
HL-60 = tested on: HL-60
T47D = tested on: T47D
RPMI-8226 = tested on: RPMI-8226
SK-MEL-2 = tested on: SK-MEL-2
SF-539 = tested on: SF-539
Hs-578T = tested on: Hs-578T

Compound	GI50 (SW-620)	GI50 (786-0)	GI50 (SF-268)	GI50 (MOLT-4)	GI50 (MDA-N)	GI50 (KM12)	GI50 (SNB-19)	GI50 (UACC-257)	GI50 (NCI-H226)	GI50 (NCI/ADR-RES)	GI50 (UO-31)	GI50 (MDA-MB-435)	GI50 (HL-60)	GI50 (T47D)	GI50 (RPMI-8226)	GI50 (SK-MEL-2)	GI50 (SF-539)	GI50 (Hs-578T)
C[C@@](Br)(C(=O)O)[C@H](Br)C(=O)O	> 100 µM (inactive)	> 100 µM (inactive)	> 100 µM (inactive)	> 100 µM (inactive)	> 100 µM (inactive)	> 100 µM (inactive)	> 100 µM (inactive)	> 100 µM (inactive)	> 100 µM (inactive)	> 100 µM (inactive)	> 100 µM (inactive)	> 100 µM (inactive)	> 100 µM (inactive)	> 100 µM (inactive)	> 100 µM (inactive)			
CC(C)(CC(=O)Nc1ccccc1)C(=O)O	> 100 µM (inactive)	> 100 µM (inactive)		> 100 µM (inactive)	> 100 µM (inactive)	> 100 µM (inactive)	> 100 µM (inactive)	> 100 µM (inactive)	> 100 µM (inactive)	> 100 µM (inactive)	> 100 µM (inactive)	> 100 µM (inactive)	> 100 µM (inactive)	> 100 µM (inactive)	> 100 µM (inactive)	> 100 µM (inactive)	> 100 µM (inactive)	
OCCCC(O)(c1ccccc1)c1ccccc1	> 100 µM (inactive)	> 100 µM (inactive)	> 100 µM (inactive)	> 100 µM (inactive)		> 100 µM (inactive)	> 100 µM (inactive)	> 100 µM (inactive)	> 100 µM (inactive)	> 100 µM (inactive)	> 100 µM (inactive)	> 100 µM (inactive)	> 100 µM (inactive)		> 100 µM (inactive)	> 100 µM (inactive)	> 100 µM (inactive)	> 100 µM (inactive)
CC(=O)CC(=O)c1cc2c(=O)oc(C)cc2oc1=O	> 37.5 µM (inactive)	> 37.5 µM (inactive)	> 37.5 µM (inactive)	> 37.5 µM (inactive)	> 37.5 µM (inactive)	> 37.5 µM (inactive)	> 37.5 µM (inactive)	> 37.5 µM (inactive)	> 37.5 µM (inactive)	> 37.5 µM (inactive)	> 37.5 µM (inactive)		> 37.5 µM (inactive)		> 37.5 µM (inactive)	> 37.5 µM (inactive)	> 37.5 µM (inactive)	
CCOC(=O)c1c(C)n(-c2ccc(C)cc2)c(=O)c2ccccc2c(=O)c2c(=O)ccc(=O)c1=2	25.6 µM (inactive)	31 µM (inactive)	19.8 µM (inactive)	2.87 µM (inactive)		13.6 µM (inactive)	32.2 µM (inactive)	18.5 µM (inactive)	18.2 µM (inactive)	18.5 µM (inactive)	23.4 µM (inactive)	15.3 µM (inactive)	14.1 µM (inactive)	20 µM (inactive)	4.7 µM (inactive)	27 µM (inactive)	21.9 µM (inactive)	21.3 µM (inactive)
O=C(c1ccco1)n1c2ccc(Br)cc2c2nc3ccccc3nc21	42.6 µM (inactive)	18.7 µM (inactive)	27 µM (inactive)	22 µM (inactive)	> 100 µM (inactive)	26.8 µM (inactive)	23.2 µM (inactive)	> 100 µM (inactive)	68.4 µM (inactive)	35.6 µM (inactive)	27 µM (inactive)	> 100 µM (inactive)	> 100 µM (inactive)	> 100 µM (inactive)	11.2 µM (inactive)	34.1 µM (inactive)	> 100 µM (inactive)	
O=C1CSC(c2c[nH]c3ccccc23)N1c1ccc(Cl)cc1Cl (centres undefined)	> 100 µM (inactive)	> 100 µM (inactive)	> 100 µM (inactive)	> 100 µM (inactive)	> 100 µM (inactive)	> 100 µM (inactive)	> 100 µM (inactive)	> 100 µM (inactive)		> 100 µM (inactive)	> 100 µM (inactive)	> 10 µM (inactive)	> 100 µM (inactive)	> 100 µM (inactive)	> 100 µM (inactive)		> 100 µM (inactive)	
CCOC(=O)c1c(N)sc2c1C(C(=O)OCC)CCC2 (centres undefined)	> 100 µM (inactive)	> 100 µM (inactive)		> 100 µM (inactive)	> 100 µM (inactive)	> 100 µM (inactive)	> 100 µM (inactive)	> 100 µM (inactive)	> 100 µM (inactive)		47.4 µM (inactive)		53.3 µM (inactive)	66.5 µM (inactive)	> 100 µM (inactive)	> 100 µM (inactive)		> 100 µM (inactive)
COC(=O)c1ccc(CN2CCc3c([nH]c4ccccc34)C2CO)o1 (centres undefined)	> 10 µM (inactive)	> 10 µM (inactive)	> 10 µM (inactive)	> 10 µM (inactive)	> 10 µM (inactive)	> 10 µM (inactive)		> 10 µM (inactive)				> 10 µM (inactive)	> 10 µM (inactive)	> 10 µM (inactive)	> 10 µM (inactive)			
N=c1c2ccccc2nc2oc3ccc(Cl)cc3n12	5.62 µM (inactive)	3.94 µM (inactive)	34.2 µM (inactive)	35.3 µM (inactive)	65.6 µM (inactive)	> 100 µM (inactive)	8.22 µM (inactive)	> 100 µM (inactive)	17.8 µM (inactive)	48.3 µM (inactive)	16.4 µM (inactive)	71.3 µM (inactive)			4.4 µM (inactive)	20.6 µM (inactive)	15.5 µM (inactive)	2.28 µM (inactive)
COC(=O)C1=C(\c2ccccc2)c2ccccc2C(=O)N(C2CCCCC2)/C=C\1	28.6 µM (inactive)	34.6 µM (inactive)	27.8 µM (inactive)	> 100 µM (inactive)	29.5 µM (inactive)	13.9 µM (inactive)	29 µM (inactive)	12.5 µM (inactive)	18.2 µM (inactive)	26.5 µM (inactive)	22.6 µM (inactive)	17.9 µM (inactive)	21.3 µM (inactive)			12.9 µM (inactive)	24 µM (inactive)	
FC(F)(F)c1ccc(Cc2nc3cc4ccccc4cc3[nH]2)cc1	> 100 µM (inactive)	89.5 µM (inactive)	> 100 µM (inactive)			> 100 µM (inactive)	45.7 µM (inactive)	> 100 µM (inactive)	> 100 µM (inactive)	> 100 µM (inactive)	58.5 µM (inactive)	> 100 µM (inactive)	93.1 µM (inactive)	39.9 µM (inactive)	6.97 µM (inactive)	> 100 µM (inactive)	> 100 µM (inactive)	95.7 µM (inactive)
C=CC(Br)(CBr)CCC1OC1(C)C (centres undefined)	13.1 µM (inactive)	15.7 µM (inactive)	16.7 µM (inactive)	16.7 µM (inactive)	11.3 µM (inactive)	17.1 µM (inactive)	17.3 µM (inactive)	14.6 µM (inactive)	19.8 µM (inactive)	23.5 µM (inactive)	18.2 µM (inactive)	17.3 µM (inactive)	23.1 µM (inactive)		20.4 µM (inactive)	15.1 µM (inactive)	19.5 µM (inactive)	15 µM (inactive)
CC(C)=CCC/C(C)=C/CC/C(C)=C/[C@@H]1[C@@H](CO)[C@]1(C)CC/C=C(\C)CCC=C(C)C	22.6 µM (inactive)	18.4 µM (inactive)	19.4 µM (inactive)	28.9 µM (inactive)		35.7 µM (inactive)	> 100 µM (inactive)	74.3 µM (inactive)	19.4 µM (inactive)	22.4 µM (inactive)	18.6 µM (inactive)	85.9 µM (inactive)		41.3 µM (inactive)	25.2 µM (inactive)	43.8 µM (inactive)	22 µM (inactive)	> 100 µM (inactive)
O=C(O)C(O)c1ccc(F)cc1 (centres undefined)	> 100 µM (inactive)	> 100 µM (inactive)	> 100 µM (inactive)	> 100 µM (inactive)	> 100 µM (inactive)	> 100 µM (inactive)	> 100 µM (inactive)	> 100 µM (inactive)		> 100 µM (inactive)	> 100 µM (inactive)	> 100 µM (inactive)		> 100 µM (inactive)	> 100 µM (inactive)	> 100 µM (inactive)		> 100 µM (inactive)
CC1(C)CC(=O)C(=CNC(=S)c2ccccc2)C(=O)C1	> 100 µM (inactive)	> 100 µM (inactive)	> 100 µM (inactive)	13.6 µM (inactive)	> 100 µM (inactive)	> 100 µM (inactive)	> 100 µM (inactive)	> 100 µM (inactive)	> 100 µM (inactive)	> 100 µM (inactive)	> 100 µM (inactive)	> 100 µM (inactive)	32.3 µM (inactive)			> 100 µM (inactive)	> 100 µM (inactive)	> 100 µM (inactive)
N#C[BH2-][n+]1cn(C2CC(O)C(COP(=O)(O)OC3CC(n4c[n+]([BH2-]C#N)c5c(=O)[nH]c(N)nc54)OC3CO)O2)c2nc(N)[nH]c(=O)c21 (centres undefined)	> 100 µM (inactive)	> 100 µM (inactive)	> 100 µM (inactive)	> 100 µM (inactive)	> 100 µM (inactive)	> 100 µM (inactive)	> 100 µM (inactive)		> 100 µM (inactive)	> 100 µM (inactive)	> 100 µM (inactive)	> 100 µM (inactive)	> 100 µM (inactive)	> 100 µM (inactive)	> 100 µM (inactive)	> 100 µM (inactive)	> 100 µM (inactive)	
COc1ccc(/C=C2\CCCc3ccccc3C2=O)cc1	0.378 µM (active)	0.0561 µM (active)	0.249 µM (active)	1.63 µM (inactive)	0.0132 µM (active)	0.158 µM (active)	0.36 µM (active)	3.13 µM (inactive)	0.116 µM (active)	0.0416 µM (active)	1.64 µM (inactive)	0.0154 µM (active)	0.279 µM (active)		0.411 µM (active)		0.287 µM (active)	0.233 µM (active)
